Assay results taken from patent US6413948B1, “Pharmaceutical compositions and methods of effecting a neuronal activity in an animal using naaladase inhibitors” (Guilford Pharmaceuticals Inc., priority 1996, dated 2002).

Tests used:
mice = experiment: In vivo toxicity of NAALADase inhibitors in mice
From the text: The mice were subsequently observed two times per day for 5 consecutive days.

[1] = test system: mouse sciatic nerve following cryolesion; experiment: In vivo assay on myelin formation following sciatic nerve cryolesion; design: species or system mice; conditions: silicone implants, approximately 2.5 μg/day, 15 days after surgery
Protocol: Cryolesion of the mouse sciatic nerve was performed according to Koenig et al., Science, Vol. 268, pp. 1500-1503 (June 1995). In brief, each mouse was anesthetized and its sciatic nerve was exposed in the upper thigh and cryolesioned using a copper cryode (diameter=0.5 mm) that was dipped in liquid nitrogen and repeatedly applied to the upper part of the nerve. The extent of the lesion was approximately 1 mm.
Fifteen days after surgery, the mice were sacrificed and their sciatic nerve segments were collected and processed for light microscopy and TEM analysis. Randomly chosen fields 2-3 mm distal to the lesion were qualitatively analyzed by light microscopy using 1-micrometer-thick toluidine blue stained cross sections and photographic images were captured.

[2] = test system: spinal cord organotypic cultures; experiment: Spinal cord culture model of ALS (THA toxicity, ChAT activity); format: cell-based, rats
Protocol: Organotypic cultures were prepared from lumbar spinal cord of 8 day old rats, as described by Rothstein et al., J. Neurochem., Vol. 65, No. 2 (1995), and Rothstein et al., Proc. Natl. Acad. Sci. USA, Vol. 90, pp. 6591-6595 (July 1993). In brief, lumbar spinal cords were removed and sliced into 300 […] sections, and five slices were placed on Millipore CM semipermeable 30-mm-diameter membrane inserts. The inserts were placed on 1 ml of culture medium in 35-mm-diameter culture wells. Culture medium consisted of 50% minimal essential medium and phosphate-free HEPES (25 mM), 25% heat-inactivated horse serum, and 25% Hanks' balanced salt solution (GIBCO) supplemented with D-glucose (25.6 mg/ml) and glutamine (2 mM), at a final pH of 7.2. Antibiotic and antifungal agents were not used. Cultures were incubated at 37° C. in 5% CO2 containing humidified environment (Forma Scientific). Culture medium, along with any added pharmacological agents, was changed twice weekly.
Drugs were incubated for an additional 13 to 20 days with the 100 μM THA. At the end of this period, cultures were collected assayed for ChAT activity as described below.
To determine choline acetyltransferase (ChAT) activity, the spinal cord tissues in each dish (five slices) were pooled and frozen (−75° C.) until assay. ChAT activity was measured radiometrically by described methods using [^3H] acetyl-CoA (Amersham; Fonnum, 1975). Protein content of tissue homogenate was determined by a Coomassi Protein Assay kit (Pierce, Rockford, Ill.).

MPTP lesioned mice = experiment: In vivo assay on Parkinson's Disease (MPTP lesioned mice, TH immunostaining); design: species or system CD1 white mice
Protocol: MPTP lesioning of dopaminergic neurons in mice was used as an animal model of Parkinson's Disease, as described by Steiner, Proc. Natl. Acad. Sci., Vol. 94, pp. 2019-2024 (March 1997). In brief, four week old male CD1 white mice were dosed IP with 30 mg/kg of MPTP for 5 days. […] At 18 days following MPTP treatment, the mice were sacrificed and their brains were removed and sectioned. Immunostaining was performed on saggital and coronal brain sections using anti-tyrosine hydroxylase (TH) antibodies to quantitate survival and recovery of dopaminergic neurons.

[3] = test system: stroke-induced rise in brain glutamate levels; experiment: In vivo assay on stroke-induced rise in brain glutamate levels (microdialysis); design: species or system Sprague Dawley rats; conditions: rat
From the text: Male Sprague Dawley rats (270-330 g, n=5-6 per group) were implanted with concentric microdialysis probes similar to previously described procedures (Britton et al., J. Neurochem., Vol. 67, pp. 324-329 (1996)). In brief, under halothane anaesthesia, probes (constructed in-house using Cuprophane capillary membrane; 10K mw cut off; 2 mm dialyzing length) were implanted into the frontal cortex (AP=+3.5; ML=3; DIV=3), caudate nucleus (AP=0; ML=3; DV=6.6), and parietal cortex (AP=−2; ML=5; DV=3) (coordinates in mm relative to bregma and dura, respectively), regions believed to represent core and penumbral areas of ischemia-induced injury. Glutamate levels in dialysate were determined using precolumn o-phthaldialdehyde derivatization, followed by HPLC with fluorometric detection.
Following a 60 minute stabilization period, dialysis samples were collected every 20 minutes. After collecting 3 baseline samples, the rats were anaesthetized with halothane and subjected to temporary ischemia using the filament method of MCAO (Britton et al., Life Sciences, Vol. 60, No. 20, pp. 1729-1740 (1997)). In brief, the right external carotid artery (ECA) was exposed and its branches coagulated. A 3-0 monofilament nylon suture was introduced into the internal carotid artery via an arteriotomy in the ECA and advanced until it lodged in the proximal region of the anterior cerebral artery, thus occluding the origin of the MCA. The endovascular suture was retracted to allow reperfusion 2 hours after occlusion.
Body temperature was maintained normothermic throughout stroke surgery and reperfusion procedures. […] Dialysis samples were collected every 20 minutes from unanesthetized rats.

[4] = test system: rats which had sustained dynorphin-induced spinal cord injury; experiment: In vivo assay on dynorphin-induced spinal cord injury; design: species or system Sprague-Dawley rats
Protocol: Dynorphin-induced spinal cord injury was performed according to Long et al., JPET, Vol. 269, No. 1, pp. 358-366 (1993). In brief, spinal subarachnoid injections were delivered using 30-gauge needles inserted between the L4-L5 vertebrae of male Sprague-Dawley rats (300-350 g). The rats were anesthetized with halothane and dorsal midline incisions were made immediately rostral to the pelvic girdle. By using the vertebral processes as guides, the needle was advanced to pass into the subarachnoid space surrounding the cauda equina. Correct needle pement was verified by CSF from the needle after its insertion. […] After injections, the incisions were treated with the topical antibacterial furazolidone and closed with wound clips. […]
Neurological function was evaluated using a 5-point ordinal scale, with scores being assigned as follows: 4=normal motor function; 3=mild paraparesis, with the ability to support weight and walk with impairment; 2=paraparesis, with the ability to make walking movements without fully supporting weight; 1=severe paraparesis, in which rats could make limited hind limb movement, but not walking movement; and 0=flaccid paralysis, with complete absence of any hind limb movement. […]
Differences in the neurological scores among treatment groups were determined by means of the Mann-Whitney U test or the Kruskal-Wallis test.

Compound: O=C(O)CCC(CP(=O)(O)O)C(=O)O (stereo not shown) [2-(phosphonomethyl)pentanedioic acid]
- toxicity to mice (in words) (mice; 1 to 500 mg/kg, observed 5 days): non-toxic to mice
- Survival Rate After 5 days (%) (mice; dose 1 mg/kg): 100%
- Survival Rate After 5 days (%) (mice; dose 5 mg/kg): 100%
- Survival Rate After 5 days (%) (mice; dose 10 mg/kg): 100%
- Survival Rate After 5 days (%) (mice; dose 30 mg/kg): 100%
- Survival Rate After 5 days (%) (mice; dose 100 mg/kg): 100%
- Survival Rate After 5 days (%) (mice; dose 300 mg/kg): 100%
- Survival Rate After 5 days (%) (mice; dose 500 mg/kg): 66.7%
- # of myelinated lamellae (ave. + SEM) [1]: 16.53 ± 0.65
- % increase of myelinated lamellae over vehicle [1]: 20%
- ChAT Activity (% of Control) ([2]; Table XII, THA (100 μM) and 1 nM, 14 days): −23.9 ± 18.6 % of Control
- ChAT Activity (% of Control) ([2]; Table XII, THA (100 μM) and 10 nM, 14 days): 23.1 ± 12.5 % of Control
- ChAT Activity (% of Control) ([2]; Table XII, THA (100 μM) and 100 nM, 14 days): 87.5 ± 21.7 % of Control
- ChAT Activity (% of Control) ([2]; Table XII, THA (100 μM) and 1 μM, 14 days): 187.7 ± 32.8 % of Control
- ChAT Activity (% of Control) ([2]; Table XII, THA (100 μM) and 10 μM, 14 days): 128.7 ± 17.2 % of Control
- protection of the cultures from THA toxicity (in words) ([2]; co-incubation with THA, 100 nM-10 μM): significantly protected
- ChAT Activity (% of Control) ([2]; compound alone): 108 ± 18.4 % of Control
- ChAT Activity (% of Control) ([2]; compound and THA): 121 + 18.8 % of Control
- Percent Strial TH Innervation Density (mean ± SEM) (MPTP lesioned mice; MPTP 30 mg/kg IP for 5 days plus compound 10 mg/kg SC): 16.28 ± 0.98%
- recovery of TH-stained dopaminergic neurons (in words) (MPTP lesioned mice; lesioned mice, 10 mg/kg, p<0.001): significant recovery
- concurrent glutamate changes in the parietal cortex [3]: completely prevented
- glutamate in the frontal cortex [3]: no subsequent difference
- stroke-induced extracellular glutamate increases in the striatum [3]: significantly attenuated
- motor scores (in words) ([4]; co-administered with dynorphin A, 24-hour post-injection, vs vehicle, p<0.05): significant improvement in motor scores
- rats ambulatory ([4]; co-treated with dynorphin A, 24 hours post-injection, 15 rats): 73%
